In article PMC8071358, “Targeting of the Essential acpP, ftsZ, and rne Genes in Carbapenem-Resistant Acinetobacter baumannii by Antisense PNA Precision Antibacterials” (Biomedicines, 2021):
Converted amounts (≈) assume the structure as drawn. {(KFF)3K-eg1} = H-(KFF)3K peptide (K lysine, F phenylalanine) with eg1 linker (8-amino-3,6-dioxaoctanoyl), on the PNA N terminus (5' end); {(kff)3k-eg1} = D-form (kff)3k peptide with eg1 linker (8-amino-3,6-dioxaoctanoyl), on the PNA N terminus; {(R-Ahx-R)4-Ahx} = H-(R-Ahx-R)4-Ahx peptide (R arginine, Ahx 6-aminohexanoyl), on the PNA N terminus; {NH2} = C-terminal amide

What was measured:
Type in all cases: cell-based, Acinetobacter baumannii
[1] = tested on: A. baumannii ATCC 19606; assay: BPP-PNA MIC, broth microdilution; settings: 37 °C, 18 h
Method: (§1) MIC values were determined by broth microdilution according to standard protocols with a few modifications. An overnight bacterial cell culture was diluted to approximately 5 × 10^5 CFU/mL in non-cation-adjusted Muller Hinton Broth (MHB). Then, 180 µL bacterial solutions were dispensed into a low-bind 96-well plate (Thermo-Scientific, Roskilde, Denmark) along with 20 µL of BPP-PNA compound (BPP-PNA was serially diluted 2-fold from 16 to 0.5 µM in a 96-well plate). The plate was incubated in a Tecan Genios plate reader (GMI, Minnesota, Ramsey, USA) at 37 °C for 18 h with linear shaking, OD was measured every 20 min at 595 nm. […] The minimum bactericidal concentration (MBC) values were determined by plating 10 µL samples from the wells with no visible turbidity onto Mueller–Hinton agar plates. The MBC is determined the lowest concentration of BPP-PNA that reduces the viability of the initial bacterial inoculum by ≥99.9% (3-log reduction in CFU/mL). A minimum of two independent experiments (biological replicates) of the assay were conducted, and two technical replicates were used in each experiment for each bacterium, compound, and concentration.

[2] = tested on: CRAB strain AC44; assay: BPP-PNA MIC, broth microdilution
Method: as §1

[3] = tested on: CRAB strain AC46; assay: BPP-PNA MIC, broth microdilution
Method: as §1, with “An overnight bacterial cell culture was diluted to approximately 5 × 10^5 CFU/mL in non-cation-adjusted Muller Hinton Broth (MHB).” left out

[4] = tested on: A. baumannii ATCC 19606 type strain; assay: Antibiotic MIC (CLSI microdilution or gradient strips); settings: Acinetobacter baumannii, ATCC19606
Method: (§2) All minimum inhibitory concentration (MIC) determinations for antibiotics were performed by the standard microdilution method in 96-well microplate (Thermo-Scientific, Roskilde, Denmark) or by gradient test strips (Liofilchem, Italy) according to the Clinical and Laboratory Standards Institute guidelines. Escherichia coli ATCC 25922 was used as control.

[5] = tested on: CRAB strain AC1; assay: as above; settings: Acinetobacter baumannii, AC1, wound isolate
Method: as §2

[6] = tested on: CRAB strain AC2; assay: as above; settings: Acinetobacter baumannii, AC2; wound isolate; CLSI; read-out: MIC, AC2
Method: as §2

[7] = tested on: CRAB strain AC3; assay: as above; settings: Acinetobacter baumannii, AC3, sputum isolate
Method: as §2

[8] = tested on: CRAB strain AC44; assay: as above; settings: Acinetobacter baumannii, AC44, urine isolate
Method: as §2

[9] = tested on: CRAB strain AC46; assay: as above; settings: Acinetobacter baumannii, AC46; sputum isolate; CLSI; read-out: MIC, AC46
Method: as §2

[10] = tested on: CRAB strain AC4; assay: as above; settings: Acinetobacter baumannii, AC4; trachea isolate; CLSI; read-out: MIC, AC4
Method: as §2

[11] = tested on: CRAB strain AC5; assay: as above; settings: Acinetobacter baumannii, AC5, urine isolate
Method: as §2

[12] = tested on: CRAB strain AC8; assay: as above; settings: Acinetobacter baumannii, AC8; sputum isolate; CLSI; read-out: MIC, AC8
Method: as §2

[13] = tested on: CRAB strain AC9; assay: as above; settings: Acinetobacter baumannii, AC9; CSF isolate; CLSI; read-out: MIC, AC9
Method: as §2

[14] = tested on: CRAB strain AC6; assay: as above; settings: Acinetobacter baumannii, AC6; blood isolate; CLSI; read-out: MIC, AC6
Method: as §2, with “guidelines.” for “guidelines. Escherichia coli ATCC 25922 was used as control.”

[15] = tested on: CRAB strain AC7; assay: as above; settings: Acinetobacter baumannii, AC7; blood isolate; CLSI; read-out: MIC, AC7
Method: as §2, with “guidelines.” for “guidelines. Escherichia coli ATCC 25922 was used as control.”

[16] = tested on: CRAB strain AC2; assay: BPP-PNA MIC, broth microdilution
Method: as §1

[17] = tested on: A. baumannii SSI1104; assay: BPP-PNA MIC, broth microdilution
Method: as §1, with “An overnight bacterial cell culture was diluted to approximately 5 × 10^5 CFU/mL in non-cation-adjusted Muller Hinton Broth (MHB).” left out

[18] = Table 4 (anti-rne), brand of medium not given, non-cation-adjusted MHB by method
[19] = MHB without cation (Oxoid), 37 °C, 18 h
[20] = Sigma MHB medium without cation, ~5 × 10^5 CFU/mL, OD595 < 0.1
[21] = Sigma MHB medium without cation, 37 °C, 18 h

Compound: H-(KFF)3K-eg1-ACGTTTCATGG-NH2 (all peptide nucleic acid (PNA), 5' {(KFF)3K-eg1}, 3' {NH2}) [PNA 5637, anti-rne peptide-PNA conjugate, match, −2 to +9]
- MIC, ATCC 19606 [1, 18]: 1 µM
- MIC, AC44 [2, 18]: 1 µM
- MIC, AC46 [3, 18]: 1 µM

Compound: H-(KFF)3K-eg1-ATGAGGCCATG-NH2 (all peptide nucleic acid (PNA), 5' {(KFF)3K-eg1}, 3' {NH2}) [PNA 5657, anti-ftsZ peptide-PNA conjugate, match, −1 to +10]
- MIC, ATCC 19606 ([1]; MHB without cation (Oxoid)): >16 µM
- MIC, AC44 [2, 19]: 16 µM

Compound: C[C@@H](O)[C@H]1C(=O)N2C(C(=O)O)=C(SCCN=CN)C[C@H]12 [Imipenem]
- MIC [4]: 1 µg/mL (≈ 3.34 µM)
- MIC [5]: 8 µg/mL (≈ 26.7 µM)
- MIC [6]: 16 µg/mL (≈ 53.4 µM)
- MIC [7]: 32 µg/mL (≈ 107 µM)
- MIC [8]: 16 µg/mL (≈ 53.4 µM)
- MIC [9]: 16 µg/mL (≈ 53.4 µM)
- MIC [10]: 8 µg/mL (≈ 26.7 µM)
- MIC [11]: 16 µg/mL (≈ 53.4 µM)
- MIC [12]: 16 µg/mL (≈ 53.4 µM)
- MIC [13]: 16 µg/mL (≈ 53.4 µM)
- MIC [14]: 16 µg/mL (≈ 53.4 µM)
- MIC [15]: 16 µg/mL (≈ 53.4 µM)

Compound: H-(R-Ahx-R)4-Ahx-GAGTCCAGGAC-NH2 (all peptide nucleic acid (PNA), 5' {(R-Ahx-R)4-Ahx}, 3' {NH2}) [PNA 5616, anti-ftsZ (R-Ahx-R)4-Ahx-PNA, mismatch]
- MIC, ATCC 19606 ([1]; MHB without cation (Oxoid)): >16 µM
- MIC, AC44 [2, 19]: >16 µM

Compound: H-(KFF)3K-eg1-ATACCGCTTAC-NH2 (all peptide nucleic acid (PNA), 5' {(KFF)3K-eg1}, 3' {NH2}) [PNA 5653, anti-acpP mismatch control of 5652]
- MIC, ATCC 19606 [1, 20]: 4 µM
- MIC, AC2 [16, 21]: 4 µM
- MIC, AC44 [2, 21]: 4 µM
- MIC, SSI 1104 [17, 21]: 4 µM
- MIC, AC46 [3, 21]: 4 µM

Compound: H-(KFF)3K-eg1-ATACGTTTCAT-NH2 (all peptide nucleic acid (PNA), 5' {(KFF)3K-eg1}, 3' {NH2}) [PNA 5654, anti-rne peptide-PNA conjugate, match, +1 to +11]
- MIC, ATCC 19606 [1, 18]: 2 µM
- MIC, AC2 [16, 18]: 2 µM
- MIC, AC44 [2, 18]: 1 µM
- MIC, SSI 1104 [17, 18]: 2 µM
- MIC, AC46 [3, 18]: 2 µM

Compound: H-(KFF)3K-eg1-GTTTCATGGGT-NH2 (all peptide nucleic acid (PNA), 5' {(KFF)3K-eg1}, 3' {NH2}) [PNA 5655, anti-rne peptide-PNA conjugate, match, −4 to +7]
- MIC, ATCC 19606 [1, 18]: 4 µM
- MIC, AC2 [16, 18]: 8 µM
- MIC, AC44 [2, 18]: 8 µM

Compound: H-(kff)3k-eg1-TGATTTGCCAC-NH2 (all peptide nucleic acid (PNA), 5' {(kff)3k-eg1}, 3' {NH2}) [PNA 5823, anti-acpP PNA with D-form peptide, match]
- MIC, ATCC 19606 [1, 20]: 4 µM
- MIC, AC2 [16, 21]: 4 µM
- MIC, AC44 [2, 21]: 4 µM
- MIC, SSI 1104 [17, 21]: 4 µM
- MIC, AC46 [3, 21]: 4 µM
